Measured values reported in patent US6544989B2, “Benzazoles: benzoxazole, benzthiazole and benzimidazole derivatives” (Syngenta Limited, priority 1998, dated 2003).

How the values were obtained:
Puccinia recondita = assay: Fungicidal test, Puccinia recondita (PUCCRT) on wheat, PRCO; type: in vivo; conditions: METHOD 2 (unbanded)
[1] = system: Erysiphe graminis f.sp. tritici; assay: Fungicidal test, Erysiphe graminis f.sp. tritici (ERYSGT) on wheat, PRCO; type: in vivo; conditions: 1 d Prot/Foir; METHOD 2 (unbanded)
Venturia inaequalis = assay: Fungicidal test, Venturia inaequalis (VENTIN) on apples, PRCO; type: in vivo; conditions: METHOD 2 (unbanded)
Meloidogyne incognita = assay: Nematode test, J2 infective juveniles of Meloidogyne incognita, mortality; conditions: 12.5 ppm; J2 infective juveniles suspended in solution; mortality after three days
[2] = system: Phytophthora infestans lycopersici; type: in vivo; conditions: METHOD 2 (unbanded)
Musca domestica = conditions: 500 ppm by weight; knockdown assessed 15 minutes after treatment
Uncinula necator = assay: Fungicidal test, Uncinula necator (UNCINE) on vines, PRCO; type: in vivo; conditions: METHOD 2 (unbanded)
Plasmopara viticola = assay: Fungicidal test, Plasmopara viticola (PLASVI) on vines, PRCO; type: in vivo; conditions: METHOD 2 (unbanded)
Pyricularia oryzae = type: in vivo; conditions: METHOD 2 (unbanded)
Septoria nodorum = assay: Fungicidal test, Septoria nodorum (LEPTNO) on wheat, PRCO; type: in vivo; conditions: METHOD 2 (unbanded)

Cc1nsc(NC(=O)Cc2ccc3ocnc3c2)c1Cl [1(A3)]
PUCCRT 1 d Prot/Foir PRCO (Puccinia recondita): 59 | ERYSGT 1 d Prot/Foir PRCO [1]: 88 | VENTIN 1 d Prot/Foir PRCO (Venturia inaequalis): 25 | MELGIN = Meloidogyne incognita, grading of mortality (score) (Meloidogyne incognita): 5 (5 indicates 40-79% mortality) | PHYTIN 1 d Prot/Foir PRCO [2]: 100 | MUSCDO AC = Musca domestica (knockdown), score (Musca domestica): 0 (0 indicates less than 40% mortality) | UNCINE 1 d Prot/Foir PRCO (Uncinula necator): 43 | PLASVI 1 d Prot/Foir PRCO (Plasmopara viticola): 6 | PYRIOR 1 d Prot/Foir PRCO (Pyricularia oryzae): 91

Cc1nsc(NC(=O)Cc2ccc3oc(C4CCCC4)nc3c2)c1Cl [28(A3)]
PUCCRT 1 d Prot/Foir PRCO (Puccinia recondita): 86 | ERYSGT 1 d Prot/Foir PRCO [1]: 46 | VENTIN 1 d Prot/Foir PRCO (Venturia inaequalis): 53 | MELGIN = Meloidogyne incognita, grading of mortality (score) (Meloidogyne incognita): 0 (0 indicates less than 40% mortality) | LEPTNO 1 d Prot/Foir PRCO (Septoria nodorum): 20 | PHYTIN 1 d Prot/Foir PRCO [2]: 100 | MUSCDO AC = Musca domestica (knockdown), score (Musca domestica): 5 (5 indicates 40-79% mortality) | UNCINE 1 d Prot/Foir PRCO (Uncinula necator): 9 | PLASVI 1 d Prot/Foir PRCO (Plasmopara viticola): 0 | PYRIOR 1 d Prot/Foir PRCO (Pyricularia oryzae): 81

Cc1nsc(NC(=O)Cc2ccc3oc(C(C)(C)CCl)nc3c2)c1Cl [98(A3)]
PUCCRT 1 d Prot/Foir PRCO (Puccinia recondita): 98 | ERYSGT 1 d Prot/Foir PRCO [1]: 98 | VENTIN 1 d Prot/Foir PRCO (Venturia inaequalis): 96 | MELGIN = Meloidogyne incognita, grading of mortality (score) (Meloidogyne incognita): 0 (0 indicates less than 40% mortality) | LEPTNO 1 d Prot/Foir PRCO (Septoria nodorum): 30 | PHYTIN 1 d Prot/Foir PRCO [2]: 100 | MUSCDO AC = Musca domestica (knockdown), score (Musca domestica): 5 (5 indicates 40-79% mortality) | UNCINE 1 d Prot/Foir PRCO (Uncinula necator): 100 | PLASVI 1 d Prot/Foir PRCO (Plasmopara viticola): 99 | PYRIOR 1 d Prot/Foir PRCO (Pyricularia oryzae): 81

CCCCc1nc2cc(CC(=O)Nc3snc(C)c3Cl)ccc2o1 [5(A3)]
PUCCRT 1 d Prot/Foir PRCO (Puccinia recondita): 88 | ERYSGT 1 d Prot/Foir PRCO [1]: 40 | VENTIN 1 d Prot/Foir PRCO (Venturia inaequalis): −10 | MELGIN = Meloidogyne incognita, grading of mortality (score) (Meloidogyne incognita): 0 (0 indicates less than 40% mortality) | LEPTNO 1 d Prot/Foir PRCO (Septoria nodorum): 30 | PHYTIN 1 d Prot/Foir PRCO [2]: 100 | MUSCDO AC = Musca domestica (knockdown), score (Musca domestica): 0 (0 indicates less than 40% mortality) | UNCINE 1 d Prot/Foir PRCO (Uncinula necator): 72 | PLASVI 1 d Prot/Foir PRCO (Plasmopara viticola): 39 | PYRIOR 1 d Prot/Foir PRCO (Pyricularia oryzae): 31

Cc1cc(NC(=O)Cc2ccc3oc(CC(C)(C)C)nc3c2)sn1 [15(A1)]
PUCCRT 1 d Prot/Foir PRCO (Puccinia recondita): 96 | ERYSGT 1 d Prot/Foir PRCO [1]: 43 | VENTIN 1 d Prot/Foir PRCO (Venturia inaequalis): 54 | MELGIN = Meloidogyne incognita, grading of mortality (score) (Meloidogyne incognita): 0 (0 indicates less than 40% mortality) | LEPTNO 1 d Prot/Foir PRCO (Septoria nodorum): 4 | PHYTIN 1 d Prot/Foir PRCO [2]: 100 | MUSCDO AC = Musca domestica (knockdown), score (Musca domestica): 5 (5 indicates 40-79% mortality) | UNCINE 1 d Prot/Foir PRCO (Uncinula necator): 100 | PYRIOR 1 d Prot/Foir PRCO (Pyricularia oryzae): 87

CCOCN(C(=O)Cc1ccc2oc(CC(C)(C)C)nc2c1)c1snc(C)c1Cl [15(L3)]
PUCCRT 1 d Prot/Foir PRCO (Puccinia recondita): 17 | ERYSGT 1 d Prot/Foir PRCO [1]: 100 | VENTIN 1 d Prot/Foir PRCO (Venturia inaequalis): −21 | MELGIN = Meloidogyne incognita, grading of mortality (score) (Meloidogyne incognita): 0 (0 indicates less than 40% mortality) | LEPTNO 1 d Prot/Foir PRCO (Septoria nodorum): 40 | PHYTIN 1 d Prot/Foir PRCO [2]: 97 | MUSCDO AC = Musca domestica (knockdown), score (Musca domestica): 9 (9 indicates 80-100% mortality) | UNCINE 1 d Prot/Foir PRCO (Uncinula necator): 99 | PYRIOR 1 d Prot/Foir PRCO (Pyricularia oryzae): 20

COC(=O)CSc1nc2cc(CC(=O)Nc3snc(C)c3Cl)ccc2o1 [229(A3)]
PUCCRT 1 d Prot/Foir PRCO (Puccinia recondita): 6 | ERYSGT 1 d Prot/Foir PRCO [1]: 21 | VENTIN 1 d Prot/Foir PRCO (Venturia inaequalis): 10 | MELGIN = Meloidogyne incognita, grading of mortality (score) (Meloidogyne incognita): 0 (0 indicates less than 40% mortality) | LEPTNO 1 d Prot/Foir PRCO (Septoria nodorum): 2 | PHYTIN 1 d Prot/Foir PRCO [2]: 92 | MUSCDO AC = Musca domestica (knockdown), score (Musca domestica): 0 (0 indicates less than 40% mortality) | UNCINE 1 d Prot/Foir PRCO (Uncinula necator): −9 | PYRIOR 1 d Prot/Foir PRCO (Pyricularia oryzae): 55

Cc1nsc(NC(=O)Cc2ccc3oc(-c4sccc4Cl)nc3c2)c1Cl [331(A3)]
PUCCRT 1 d Prot/Foir PRCO (Puccinia recondita): 95 | ERYSGT 1 d Prot/Foir PRCO [1]: 33 | VENTIN 1 d Prot/Foir PRCO (Venturia inaequalis): 5 | LEPTNO 1 d Prot/Foir PRCO (Septoria nodorum): 17 | MUSCDO AC = Musca domestica (knockdown), score (Musca domestica): 0 (0 indicates less than 40% mortality) | UNCINE 1 d Prot/Foir PRCO (Uncinula necator): 76 | PLASVI 1 d Prot/Foir PRCO (Plasmopara viticola): 49 | PYRIOR 1 d Prot/Foir PRCO (Pyricularia oryzae): 81

Cc1nc2cc(CC(=O)Nc3snc(C)c3Br)ccc2o1 [2(A4)]
PUCCRT 1 d Prot/Foir PRCO (Puccinia recondita): 100 | ERYSGT 1 d Prot/Foir PRCO [1]: 97 | VENTIN 1 d Prot/Foir PRCO (Venturia inaequalis): 92 | MELGIN = Meloidogyne incognita, grading of mortality (score) (Meloidogyne incognita): 0 (0 indicates less than 40% mortality) | LEPTNO 1 d Prot/Foir PRCO (Septoria nodorum): −12 | PHYTIN 1 d Prot/Foir PRCO [2]: 100 | MUSCDO AC = Musca domestica (knockdown), score (Musca domestica): 5 (5 indicates 40-79% mortality) | UNCINE 1 d Prot/Foir PRCO (Uncinula necator): 90 | PYRIOR 1 d Prot/Foir PRCO (Pyricularia oryzae): 99

Cc1nsc(NC(=O)Cc2ccc3oc(C(F)(F)C(F)(F)C(F)(F)F)nc3c2)c1Cl [80(A3)]
PUCCRT 1 d Prot/Foir PRCO (Puccinia recondita): 100 | ERYSGT 1 d Prot/Foir PRCO [1]: 99 | VENTIN 1 d Prot/Foir PRCO (Venturia inaequalis): −8 | MELGIN = Meloidogyne incognita, grading of mortality (score) (Meloidogyne incognita): 0 (0 indicates less than 40% mortality) | LEPTNO 1 d Prot/Foir PRCO (Septoria nodorum): −2 | PHYTIN 1 d Prot/Foir PRCO [2]: 45 | MUSCDO AC = Musca domestica (knockdown), score (Musca domestica): 0 (0 indicates less than 40% mortality) | UNCINE 1 d Prot/Foir PRCO (Uncinula necator): 100 | PYRIOR 1 d Prot/Foir PRCO (Pyricularia oryzae): 91

CCOc1nc2cc(CC(=O)Nc3snc(C)c3Cl)ccc2o1 [204(A3)]
PUCCRT 1 d Prot/Foir PRCO (Puccinia recondita): 99 | ERYSGT 1 d Prot/Foir PRCO [1]: 87 | VENTIN 1 d Prot/Foir PRCO (Venturia inaequalis): 22 | MELGIN = Meloidogyne incognita, grading of mortality (score) (Meloidogyne incognita): 0 (0 indicates less than 40% mortality) | LEPTNO 1 d Prot/Foir PRCO (Septoria nodorum): 67 | PHYTIN 1 d Prot/Foir PRCO [2]: 100 | MUSCDO AC = Musca domestica (knockdown), score (Musca domestica): 9 (9 indicates 80-100% mortality) | UNCINE 1 d Prot/Foir PRCO (Uncinula necator): 81 | PYRIOR 1 d Prot/Foir PRCO (Pyricularia oryzae): 96

Cc1nsc(NC(=O)Cc2ccc3oc(N4CCOCC4)nc3c2)c1Cl [191(A3)]
PUCCRT 1 d Prot/Foir PRCO (Puccinia recondita): 99 | ERYSGT 1 d Prot/Foir PRCO [1]: 94 | VENTIN 1 d Prot/Foir PRCO (Venturia inaequalis): 10 | MELGIN = Meloidogyne incognita, grading of mortality (score) (Meloidogyne incognita): 9 (9 indicates 80-100% mortality) | LEPTNO 1 d Prot/Foir PRCO (Septoria nodorum): 36 | PHYTIN 1 d Prot/Foir PRCO [2]: 92 | MUSCDO AC = Musca domestica (knockdown), score (Musca domestica): 5 (5 indicates 40-79% mortality) | UNCINE 1 d Prot/Foir PRCO (Uncinula necator): 100 | PYRIOR 1 d Prot/Foir PRCO (Pyricularia oryzae): 92

Cc1nsc(NC(=O)Cc2ccc3oc(NC(C)(C)C)nc3c2)c1Cl [183(A3)]
PUCCRT 1 d Prot/Foir PRCO (Puccinia recondita): 99 | ERYSGT 1 d Prot/Foir PRCO [1]: 99 | VENTIN 1 d Prot/Foir PRCO (Venturia inaequalis): 98 | MELGIN = Meloidogyne incognita, grading of mortality (score) (Meloidogyne incognita): 0 (0 indicates less than 40% mortality) | LEPTNO 1 d Prot/Foir PRCO (Septoria nodorum): 19 | PHYTIN 1 d Prot/Foir PRCO [2]: 100 | MUSCDO AC = Musca domestica (knockdown), score (Musca domestica): 0 (0 indicates less than 40% mortality) | UNCINE 1 d Prot/Foir PRCO (Uncinula necator): 98 | PYRIOR 1 d Prot/Foir PRCO (Pyricularia oryzae): 99

Cc1nsc(N(C(=O)Cc2ccc3oc(CC(C)(C)C)nc3c2)C(C)C)c1Cl [15(N3)]
PUCCRT 1 d Prot/Foir PRCO (Puccinia recondita): 3 | ERYSGT 1 d Prot/Foir PRCO [1]: 8 | VENTIN 1 d Prot/Foir PRCO (Venturia inaequalis): 3 | MELGIN = Meloidogyne incognita, grading of mortality (score) (Meloidogyne incognita): 0 (0 indicates less than 40% mortality) | LEPTNO 1 d Prot/Foir PRCO (Septoria nodorum): −2 | PHYTIN 1 d Prot/Foir PRCO [2]: 3 | MUSCDO AC = Musca domestica (knockdown), score (Musca domestica): 0 (0 indicates less than 40% mortality) | UNCINE 1 d Prot/Foir PRCO (Uncinula necator): 87 | PYRIOR 1 d Prot/Foir PRCO (Pyricularia oryzae): 13

CCCN(C(=O)Cc1ccc2oc(CC(C)(C)C)nc2c1)c1snc(C)c1Cl [15(D3)]
PUCCRT 1 d Prot/Foir PRCO (Puccinia recondita): 25 | ERYSGT 1 d Prot/Foir PRCO [1]: 55 | VENTIN 1 d Prot/Foir PRCO (Venturia inaequalis): −14 | MELGIN = Meloidogyne incognita, grading of mortality (score) (Meloidogyne incognita): 0 (0 indicates less than 40% mortality) | LEPTNO 1 d Prot/Foir PRCO (Septoria nodorum): 70 | PHYTIN 1 d Prot/Foir PRCO [2]: 99 | MUSCDO AC = Musca domestica (knockdown), score (Musca domestica): 0 (0 indicates less than 40% mortality) | UNCINE 1 d Prot/Foir PRCO (Uncinula necator): 100 | PYRIOR 1 d Prot/Foir PRCO (Pyricularia oryzae): 27

Cc1nsc(NC(=O)Cc2ccc3oc(CC4CC4)nc3c2)c1Cl [41(A3)]
PUCCRT 1 d Prot/Foir PRCO (Puccinia recondita): 98 | ERYSGT 1 d Prot/Foir PRCO [1]: 59 | VENTIN 1 d Prot/Foir PRCO (Venturia inaequalis): 50 | MELGIN = Meloidogyne incognita, grading of mortality (score) (Meloidogyne incognita): 0 (0 indicates less than 40% mortality) | LEPTNO 1 d Prot/Foir PRCO (Septoria nodorum): 77 | PHYTIN 1 d Prot/Foir PRCO [2]: 100 | MUSCDO AC = Musca domestica (knockdown), score (Musca domestica): 0 (0 indicates less than 40% mortality) | UNCINE 1 d Prot/Foir PRCO (Uncinula necator): 91 | PYRIOR 1 d Prot/Foir PRCO (Pyricularia oryzae): 33
